Results from patent US8178579B2, “Dioxanes and uses thereof” (President and Fellows of Harvard College, priority 2001, dated 2012).

Experiments:
[1] = tested on: cyclin B degradation pathway; assay: Xenopus laevis oocyte extract assay of cyclin B degradation; conditions: 4 μL assay volume
Source text: (§1) Biologically active 1,3-dioxanes have been identified in phenotypic assays in cell culture, zebrafish, and Xenopus laevis oocyte extract (FIG. 22).

HDAC6 = target: T1, HDAC6 (Homo sapiens, UniProt Q9UBN7); assay: HDAC assay, [3H]acetate-incorporated histones with immunoprecipitated FLAG-tagged HDAC6 (HDAC6F); format: biochemical; set-up: made in house; host or cells: TAg Jurkat cells, transient transfection, anti-FLAG M2 immunoprecipitation; conditions: calculated IC50, data in duplicate, at least two experiments; read-out: IC50 against HDAC6
T1 sequence (Q9UBN7 1-1215): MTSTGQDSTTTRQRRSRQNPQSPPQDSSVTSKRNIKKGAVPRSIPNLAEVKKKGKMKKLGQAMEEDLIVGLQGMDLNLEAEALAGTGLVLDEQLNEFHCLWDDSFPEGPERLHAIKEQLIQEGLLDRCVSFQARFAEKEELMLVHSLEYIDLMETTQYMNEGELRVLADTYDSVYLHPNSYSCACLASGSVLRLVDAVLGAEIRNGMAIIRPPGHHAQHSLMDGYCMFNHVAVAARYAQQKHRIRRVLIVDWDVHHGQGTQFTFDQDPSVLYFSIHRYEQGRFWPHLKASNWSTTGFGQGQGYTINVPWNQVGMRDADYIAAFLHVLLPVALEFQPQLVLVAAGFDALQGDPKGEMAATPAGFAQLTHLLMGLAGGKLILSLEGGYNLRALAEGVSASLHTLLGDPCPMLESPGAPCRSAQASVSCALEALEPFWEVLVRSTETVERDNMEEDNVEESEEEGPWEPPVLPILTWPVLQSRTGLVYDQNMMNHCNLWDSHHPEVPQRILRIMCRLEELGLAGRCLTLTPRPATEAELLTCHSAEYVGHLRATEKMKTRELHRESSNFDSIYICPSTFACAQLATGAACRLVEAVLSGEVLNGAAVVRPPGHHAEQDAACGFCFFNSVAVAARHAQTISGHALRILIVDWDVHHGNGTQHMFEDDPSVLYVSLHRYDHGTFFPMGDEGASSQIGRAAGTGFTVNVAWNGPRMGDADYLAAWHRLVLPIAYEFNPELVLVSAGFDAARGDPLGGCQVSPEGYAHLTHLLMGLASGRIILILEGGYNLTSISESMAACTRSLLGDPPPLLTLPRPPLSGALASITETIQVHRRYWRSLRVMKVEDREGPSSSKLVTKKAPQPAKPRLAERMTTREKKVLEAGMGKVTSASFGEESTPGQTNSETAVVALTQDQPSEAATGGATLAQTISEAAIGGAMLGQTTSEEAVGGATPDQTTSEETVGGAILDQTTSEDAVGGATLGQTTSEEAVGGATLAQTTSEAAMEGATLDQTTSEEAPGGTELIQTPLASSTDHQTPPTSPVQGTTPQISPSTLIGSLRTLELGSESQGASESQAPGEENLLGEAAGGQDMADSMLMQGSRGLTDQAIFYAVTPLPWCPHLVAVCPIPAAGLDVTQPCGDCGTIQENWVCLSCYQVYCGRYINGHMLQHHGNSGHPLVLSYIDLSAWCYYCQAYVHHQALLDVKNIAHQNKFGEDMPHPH
Experimental: (§2) Cell culture and Transfections. TAg-Jurkat cells were transfected by electroporation with 5 μg of FLAG-epitope-tagged pBJ5 constructs (as described in ref. 5c) for expression of recombinant proteins. Cells were harvested 48 h posttransfection.
HDAC assays. […] Compounds were added in DMSO such that final assay concentrations were 1% DMSO. IC50s were calculated using Prism 3.0 software. Curve fitting was done without constraints using the program's Sigmoidal-Dose Response parameters. All data points were acquired in duplicate and IC50s are calculated from the composite results of at least two separate experiments.
Tubulin and MAPs were isolated from bovine brain as described [See http://mitchison.med.harvard.edu/protocols/tubprep.html]. Whole brain and fractions from phosphocellulose chromatography were blotted for HDAC6 and acetylated α-tubulin. Cultured hippocampal neurons from dissociated 1-day old rat brains were transfected with an enhanced green fluorescent protein (EGFP)-actin construct at 4-5 days using the calcium phosphate method [E. N. Star, D. J. Kwiatkowski and V. N. Murthy, Nat. Neurosci. […] K. Miranti and M. E. Greenberg, J. Neurosci. […] Transfected cultures were allowed to grow for at least 48 h before the addition of experimental compounds.
[^3H]Acetate-incorporated histones were isolated from butyrate-treated HeLa cells as described [J. Taunton, C. […] Immunoprecipitates were incubated with acetylated histones and HDAC activity determined by scintillation counting as described [J. Taunton, C. […] TDAC assays were performed with immunoprecipitates using MAP-stabilized microtubules polymerized from MAP-rich tubulin fraction as described [C. […] Reactions were incubated (2 h) at 37° C., then incubated on ice (15 min).

HDAC1 = target: T2, HDAC1 (Homo sapiens, UniProt Q13547); assay: HDAC assay, [3H]acetate-incorporated histones with immunoprecipitated FLAG-tagged HDAC1; format: biochemical; conditions: calculated IC50, data in duplicate, at least two experiments; read-out: IC50 against HDAC1
T2 construct: made in house; host or cells: TAg-Jurkat cells, transient transfection, then immunoprecipitation
T2 sequence (Q13547 whole entry): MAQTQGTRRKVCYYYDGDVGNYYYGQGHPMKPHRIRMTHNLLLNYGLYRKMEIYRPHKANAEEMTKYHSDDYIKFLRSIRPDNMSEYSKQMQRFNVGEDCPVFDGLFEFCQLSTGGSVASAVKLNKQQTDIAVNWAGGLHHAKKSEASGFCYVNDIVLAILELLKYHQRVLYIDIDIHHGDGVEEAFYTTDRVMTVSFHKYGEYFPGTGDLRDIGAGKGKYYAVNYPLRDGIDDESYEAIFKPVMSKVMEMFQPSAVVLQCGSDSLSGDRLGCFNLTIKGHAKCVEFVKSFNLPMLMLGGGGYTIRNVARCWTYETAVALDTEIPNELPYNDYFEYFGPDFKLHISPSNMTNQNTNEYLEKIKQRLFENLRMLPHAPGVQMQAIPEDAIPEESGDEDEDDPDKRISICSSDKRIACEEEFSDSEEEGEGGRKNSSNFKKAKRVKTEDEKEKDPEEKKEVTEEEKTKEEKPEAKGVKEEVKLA
Experimental: as §2
HDAC assays. [^3H]Acetate-incorporated histones were isolated from butyrate-treated HeLa cells by hydroxyapatite chromatography (as described in Tong, et al. Nature 1997, 395, 917-921.) Immunoprecipitates were incubated with 1.4 μg (10,000 dpm) histones for 3 h at 37° C. HDAC activity was determined by scintillation counting of the ethyl acetate-soluble [^3H]acetic acid (as described in Taunton, et al., Science 1996, 272, 408-411). Compounds were added in DMSO such that final assay concentrations were 1% DMSO. IC50s were calculated using Prism 3.0 software. Curve fitting was done without constraints using the program's Sigmoidal-Dose Response parameters. All data points were acquired in duplicate and IC50s are calculated from the composite results of at least two separate experiments.

cyclin B degradation = cyclin B degradation assay in HeLa cells; format: cell-based; conditions: 30 μL assay volume
Source text: as §1

α-tubulin deacetylation = conditions: cited from earlier work
[2] = tested on: α-tubulin acetylation in the presence of ITSA1; conditions: cited from earlier work
human FKBP12 = human FKBP12 (Homo sapiens, UniProt P62942); assay: small molecule microarray protein-binding assay; conditions: labeled protein
Chain of human FKBP12 (P62942 whole entry): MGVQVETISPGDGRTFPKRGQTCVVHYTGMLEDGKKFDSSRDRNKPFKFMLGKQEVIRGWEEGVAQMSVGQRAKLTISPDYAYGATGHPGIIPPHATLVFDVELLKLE
Experimental: In addition to phenotypic assays, over fifty protein-binding assays have been performed with the 1,3-dioxane library using small molecule microarrays (MacBeath et al. J. Am. Chem. Soc. 1999, 121, 7967-7968; Peterson et al. Proc. Natl. Acad. Sci. U.S.A. 2000, 97, 12965-12969). The microarrays were constructed by covalent attachment of […] of each stock solution to a glass slide using a contact printing robot. Labeled proteins were used to probe the microarray for small molecule partners.

In the case of `C[C@H]1[C@@H](CN2CCC3(CC2)OCCO3)OC(c2cccc(NS(=O)(=O)c3ccccc3)c2)O[C@H]1c1ccc(CO)cc1` (mixture of isomers) [compound 10, (±)-N-[3-[(4S,5R,6R)-4-(1,4-dioxa-8-azaspiro[4.5]dec-8-ylmethyl)-6-[4-(hydroxymethyl)phenyl]-5-methyl-1,3-dioxan-2-yl]phenyl-benzenesulfonamide], the “activity in Xenopus laevis oocyte extract cyclin B degradation assay” value [1] is reported as “Neither set of compounds was active in both assay systems”, the IC50 (HDAC6) is reported as about 1000 nM and the IC50 (HDAC1) is reported as about 1000 nM. The “activity in HeLa cell cyclin B degradation assay” value (cyclin B degradation) was “inhibitory activity”.

In the case of `CC(=O)O[C@H]1C(=O)[C@@]2(C)[C@H]([C@H](OC(=O)c3ccccc3)[C@]3(O)C[C@H](OC(=O)[C@H](O)[C@@H](NC(=O)c4ccccc4)c4ccccc4)C(C)=C1C3(C)C)[C@]1(OC(C)=O)CO[C@@H]1C[C@@H]2O` [taxol, Paclitaxel], the “effect on α-tubulin acetylation, stated as known” value (α-tubulin deacetylation) is listed as “increases α-tubulin acetylation due to direct stabilization of microtubules” and the “suppression by ITSA1, stated as known” value [2] is listed as “is not suppressed by ITSA1”.

In the case of “(αS)-2-acetyloxy)-N-[[4-[(4R,5S,6S)-4-[4-(hydroxymethyl)phenyl]-6-[[4,5-d]phenyl-2-oxazolyl)thio]methyl]61,3-dioxan-2-yl]phenyl]methyl-propionamide [compound 14]”, the “binding to human FKBP12 on small molecule microarray” value (human FKBP12) is reported as “bind to human FKBP12”.
